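Method: 48-hour compound exposure of cells in 96-well plates, five concentrations, linear interpolation of endpoints. The concentration for 50% growth inhibition is given as GI50.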 The source made the active and inactive calls. No stated cut-off is given here; in the data, active = GI50 up to about 1.1 µM and inactive = higher.
What was measured:
Experiment in all cases: NCI anticancer screen, dose series, 48 h
IGROV-1 = tested on: IGROV-1
NCI-H460 = tested on: NCI-H460
NCI-H23 = tested on: NCI-H23
SK-MEL-2 = tested on: SK-MEL-2
A549 = tested on: A549
EKVX = tested on: EKVX
OVCAR-5 = tested on: OVCAR-5
UACC-62 = tested on: UACC-62
MDA-N = tested on: MDA-N
SNB-75 = tested on: SNB-75
K562 = tested on: K562
COLO 205 = tested on: COLO 205
786-0 = tested on: 786-0
SN12C = tested on: SN12C
OVCAR-3 = tested on: OVCAR-3
MDA-MB-231 = tested on: MDA-MB-231
M14 = tested on: M14
MDA-MB-435 = tested on: MDA-MB-435
HCC 2998 = tested on: HCC 2998
SK-MEL-28 = tested on: SK-MEL-28
SR = tested on: SR
HT-29 = tested on: HT-29
OVCAR-4 = tested on: OVCAR-4
SNB-19 = tested on: SNB-19
MOLT-4 = tested on: MOLT-4
UACC-257 = tested on: UACC-257
SK-OV-3 = tested on: SK-OV-3
HCT-15 = tested on: HCT-15
T47D = tested on: T47D
NCI-H226 = tested on: NCI-H226
SF-268 = tested on: SF-268
SF-295 = tested on: SF-295
RPMI-8226 = tested on: RPMI-8226
CCRF-CEM = tested on: CCRF-CEM
SK-MEL-5 = tested on: SK-MEL-5
NCI/ADR-RES = tested on: NCI/ADR-RES
HOP-62 = tested on: HOP-62
OVCAR-8 = tested on: OVCAR-8
KM12 = tested on: KM12
UO-31 = tested on: UO-31
U-251 = tested on: U-251
DU-145 = tested on: DU-145
SW-620 = tested on: SW-620
HCT-116 = tested on: HCT-116
LOX IMVI = tested on: LOX IMVI
PC-3 = tested on: PC-3
SF-539 = tested on: SF-539
ACHN = tested on: ACHN
MCF7 = tested on: MCF7
Malme-3M = tested on: Malme-3M
NCI-H522 = tested on: NCI-H522
BT-549 = tested on: BT-549
RXF 393 = tested on: RXF 393
TK-10 = tested on: TK-10
HL-60 = tested on: HL-60
Hs-578T = tested on: Hs-578T
CAKI-1 = tested on: CAKI-1
HOP-92 = tested on: HOP-92

Measured: GI50

COC1CC(NC(=O)C(F)(F)F)C(OC(C)=O)C(C)O1 (centres undefined)
inactive: IGROV-1 > 100 µM | NCI-H460 > 100 µM | NCI-H23 > 100 µM | SK-MEL-2 > 100 µM | A549 > 100 µM | EKVX > 100 µM | OVCAR-5 > 100 µM | UACC-62 > 100 µM | MDA-N > 100 µM | SNB-75 > 100 µM | K562 > 100 µM | COLO 205 > 100 µM | 786-0 > 100 µM | SN12C > 100 µM | OVCAR-3 > 100 µM | MDA-MB-231 > 100 µM | M14 > 100 µM | MDA-MB-435 > 100 µM | HCC 2998 > 100 µM | SK-MEL-28 > 100 µM | SR > 100 µM | HT-29 > 100 µM | OVCAR-4 > 100 µM | SNB-19 > 100 µM | MOLT-4 > 100 µM | UACC-257 > 100 µM | SK-OV-3 > 100 µM | T47D > 100 µM | NCI-H226 66.5 µM | SF-268 > 100 µM | SF-295 > 100 µM | RPMI-8226 > 100 µM | CCRF-CEM > 100 µM | SK-MEL-5 > 100 µM | NCI/ADR-RES > 100 µM | HOP-62 > 100 µM | OVCAR-8 > 100 µM | KM12 > 100 µM | UO-31 > 100 µM | U-251 > 100 µM | DU-145 > 100 µM | SW-620 > 100 µM | HCT-116 > 100 µM | LOX IMVI > 100 µM | PC-3 > 100 µM | SF-539 > 100 µM | ACHN > 100 µM | MCF7 > 100 µM | Malme-3M > 100 µM | NCI-H522 > 100 µM | BT-549 > 100 µM | RXF 393 > 100 µM | TK-10 > 100 µM | HL-60 > 100 µM | Hs-578T > 100 µM | CAKI-1 > 100 µM | HOP-92 72.1 µM
> 100 µM: HCT-15

CCOC1NC(=O)Oc2cc3ccccc3cc21 (centres undefined)
inactive: IGROV-1 > 100 µM | NCI-H460 > 100 µM | NCI-H23 > 100 µM | A549 > 100 µM | EKVX > 100 µM | OVCAR-5 > 100 µM | UACC-62 42.6 µM | MDA-N > 100 µM | SNB-75 60.5 µM | K562 40.6 µM | COLO 205 > 100 µM | 786-0 > 100 µM | SN12C > 100 µM | OVCAR-3 30.2 µM | MDA-MB-231 > 100 µM | M14 39 µM | MDA-MB-435 > 100 µM | HCC 2998 > 100 µM | SK-MEL-28 > 100 µM | SR 48.5 µM | HT-29 > 100 µM | OVCAR-4 > 100 µM | SNB-19 64.3 µM | MOLT-4 34.8 µM | UACC-257 > 100 µM | SK-OV-3 > 100 µM | T47D 39.6 µM | NCI-H226 > 100 µM | SF-268 > 100 µM | SF-295 > 100 µM | RPMI-8226 95.9 µM | CCRF-CEM 36.5 µM | SK-MEL-5 > 100 µM | NCI/ADR-RES 99.5 µM | HOP-62 > 100 µM | OVCAR-8 48.6 µM | KM12 > 100 µM | UO-31 > 100 µM | U-251 36.1 µM | DU-145 > 100 µM | SW-620 > 100 µM | HCT-116 35 µM | LOX IMVI 67.1 µM | PC-3 29 µM | SF-539 68.1 µM | ACHN > 100 µM | MCF7 35.6 µM | Malme-3M > 100 µM | NCI-H522 > 100 µM | BT-549 44.1 µM | RXF 393 > 100 µM | TK-10 > 100 µM | HL-60 31.3 µM | Hs-578T > 100 µM | HOP-92 29.6 µM
34.4 µM: HCT-15

— ChEMBL document CHEMBL1201862, “PubChem BioAssay data set” (2004)
